Source: patent US11890286B2, “Methods and compositions for treating cancer” (THE UNIVERSITY OF CHICAGO, priority 2018, dated 2024)

Tests used:
[1] = system: BM1 cells; test: 3D proliferation of BM1 cells (total cell number in the invasion assay); type: cell-based, human; details: BM1, 10 μM and above
Description: (§1) The chemotaxis module in IncuCyte® can accurately count the number of cell in the top chamber and the bottom chamber of the ClearView plates separately. Invasive capability of the cells in the presence of various small molecule inhibitors was measured as the percentage of cells that moved to the bottom chamber over the period of 72 hours. The formula used for this calculation is (number of cells in the bottom chamber)/(number of cells in the bottom chamber+number of cells in the top chamber)×100. The total number of cells in the top and bottom chambers is used as a readout of proliferation, which was important for determining drug combinations that blocked invasion without affecting growth properties of the cells.
3D Cultures: For 3D proliferation experiments, we used Cultrex® 3D Basement Membrane Matrix, Reduced Growth Factor (Trevigen, Cat. No. 3445-005-01, Lot No 37353J16, Lot concentration: 15.51 mg/ml, referred to as BME). For all experiments, the cells in growth media were mixed with BME at a final concentration of 2 mg/ml. For 3D proliferation assays, 100 μl of the cell/BME mixture was dispensed into each well of a 96-well plate. Upon solidification of BME, 100 μl of growth media was added on top of the solidified gel. […] The growth of the cells was monitored in IncuCyte® Zoom or S3 models for the indicated duration of time.

[2] = system: orthotopic LMB tumors; test: Primary orthotopic LMB tumor growth in syngeneic mice; type: in vivo, mouse; details: single inhibitor; for primary LMB tumor growth determined by final tumor weight: syngeneic model, 10 mg/kg/day or lower
Description: For primary tumor growth experiments, 2×10^6 BM1 cells, 5×10^5 LMB cells, or 1×10^6 […] cells were injected orthotopically near the mammary fat pad of athymic nude, C57B1/6, or C3-1-TAg-REAR mice, respectively. Tumor growth was monitored over time by caliper measurements of the width and length of tumors. Tumor volumes were calculated with the formula: For the in vivo studies involving MAPK inhibitors and the 4-drug MAPKi combination treatment, small molecule inhibitors were resuspended under sterile conditions. […] No. 91893)+50% saline. JNK inhibitor SP600125 and MEK inhibitor Trametinib were diluted in corn oil (Sigma, Cat. No. C8267). For the 4-drug combinatorial treatment, all inhibitors were dissolved in their own solvent at 4×higher concentration then the desired final concentration. Then, SB203580 and URMC-099 were mixed at a 1:1 ratio, reducing the concentration for each drug down to 2×. Similarly, SP600125 and Trametinib were mixed at a 1:1 ratio. These dual combination solutions were then filtered through 0.22 μm PES filter syringes to assure sterility. Each mouse received 50 μl of each dual combination on the same day, resulting in a total of 100 μl of drug mix (2 injections per mouse) with each drug at their desired 1×final concentration. […] All injections were intraperitoneal. For the tumor growth experiments with the MAPK inhibitors, tumors were allowed to reach the size 50-100 mm^3 size before the MAPKi treatment began. Then, the mice were treated with the respective MAPKi treatment (or the control) for up to 3 weeks. Tumor size was monitored twice a week with a caliper. For the metastasis assays, the tumor cells were treated with the 4-drug MAPKi combination at the in vitro doses for 24 hours prior to injections to allow for anti-metastatic reprogramming of the cells. Homing to metastatic tissues upon intracardiac or tail vein injections can take up to 48 hours. […] After the inoculation, the mice were treated with the inhibitors daily for up to 3 weeks until the experimental endpoints discussed above were reached.

[3] = system: JNK; test: Signaling study in vitro, immunoblot of JNK phosphorylation in TNBC cell lines; type: cell-based, human and mouse
Description: (§2) Signaling studies in vitro: In order to investigate the changes in stress kinase signaling upon stress in the presence of RKIP, or small molecule inhibitors of the MAPKs, cells were plated at sub-confluence. Once they reached roughly 70% confluence, they were starved overnight (16-24 hours) in serum-free media, and then induced with either anisomycin (Sigma-Aldrich, Cat. No. A9789) at 25 ng/ml or 100 ng/ml final concentration, or by 10% serum for 30 minutes to activate MAPK pathways. In studies with small molecule inhibitors of the MAPK pathway, all inhibitors were re-suspended in DMSO and used at indicated concentrations. The cells were pre-treated with the inhibitors in serum-free media for 30 minutes after overnight starvation, immediately before induction with anisomycin or serum for 30 minutes. In this case, the inducing agent was directly added to the pre-treatment media that already had the inhibitors, or the pre-treatment media was replaced by fresh media containing the inducer and the inhibitors. […]
(§3) Protein isolation and western blots: Cultured cells were washed with cold PBS and lysed in RIPA buffer with protease inhibitors (Millipore Sigma, Cat. No. 539134) and phosphatase inhibitors (GoldBio, Cat. No. GB-450). […] Supernatant was collected and the protein concentration measured using the Bradford assay. […]

[4] = system: BM1 cells (BM1-NucLight Red); test: High-throughput chemotactic invasion assay of nuclear-labeled BM1 cells; type: cell-based, human; details: 72 hours, single drug
Description: High-throughput chemotactic invasion assays: For testing anti-invasive drug combinations, IncuCyte® ClearView 96-Well Chemotaxis plates (Essen BioScience) were used. 2000 cells per well were embedded in 2 mg/ml BME and plated onto the chemotaxis plate following the manufacturer's instructions. Media containing 2% FBS was used in both top and bottom chambers to maintain cell viability over 72 hours or more. 200 ng/ml human EGF (Bio-Techne, 236-EG-01M) was used as the chemotactic agent in the bottom chamber, and the control wells only had the vehicle for the chemotactic agent.
This assay is more accurate when nuclear-labeled cells are used. Therefore, BM1-mKate2 (nuclear red) cells were generated using IncuCyte® NucLight Red Lentivirus Reagent (Essen BioScience, Cat. No. 4478) following the manufacturer's instructions. After transduction, cells with the highest nuclear red signal intensity (top 25%) were sorted by FACS.
as §1

[5] = system: p38; test: Signaling study in vitro, immunoblot of p38 phosphorylation in TNBC cell lines; type: cell-based, human and mouse; details: anisomycin-induced human cell lines (BM1, MB436)
Description: as §2, §3

[6] = system: MB436 cells; test: Chemotactic invasion assay, MB436 cells; type: cell-based, human; details: increasing doses, single drug
Description: (§4) Boyden Chamber Invasion Assay: Each Boyden chamber membrane (Fisher Scientific, Cat. No. 353097) was coated with a thin layer of BME (200 μl of 0.25 mg/ml stock, or total of 50 μg of BME per membrane) and incubated at 37° C. for 1 hour. Cells were trypsinized and centrifuged at 500×g for 5 minutes followed by two rounds of PBS washes to remove remaining serum-containing media. Then, the cells were resuspended in serum-free media and diluted to the desired concentration for plating onto the Boyden chambers. Each Boyden chamber received 20,000-100,000 cells in 300 μl serum-free media, depending on the cell line. 10% serum was used as the chemoattractant for these assays. For the experiments testing the effect of MAPK inhibitors on invasion, the cells were resuspended in drug-containing serum-free media immediately. After 16-24 hours, the membranes were stained with Calcein AM (Fisher Scientific, Cat. No. 354217) for 1 hour at 37° C. in the dark to stain for live cells. Cells that are in the top chamber were removed from the membrane with a wet cotton swab. Cells in the bottom chamber were dissociated from the membrane by incubating in cell dissociation buffer (Trevigen, Cultrex®, Cat. No. 3455-096-05) in a shaker at 37° C. for 1 hour. Calcein AM signal was measured in Perkin Elmer Victor X3 plate reader as a read-out of invaded cells.

[7] = system: BM1 cells; test: Chemotactic invasion assay, BM1 cells; type: cell-based, human; details: increasing doses, single drug
Description: as §4

O=C(O)c1ccc2c(c1)nc(Nc1cccc(Cl)c1)c1ccncc12 [CX-4945]
effect on growth at the doses that blocked invasion [1]: growth-inhibitory

C[S+]([O-])c1ccc(-c2nc(-c3ccc(F)cc3)c(-c3ccncc3)[nH]2)cc1 (stereo not shown) [SB203580, 4-(4-Fluorophenyl)-2-(4-methylsulfinylphenyl)-5-(4-pyridyl)-1H-imidazole]
primary LMB tumor growth determined by final tumor weight [2]: do not affect primary LMB tumor growth | JNK activation upon p38 inhibition (crosstalk) ([3]; serum-induced, all four human and mouse TNBC cell lines): resulted in JNK activation | minimal dose at which the proliferation rates were unaffected while the invasive capabilities of the cells were at least partially blocked [4]: 1 µM

Oc1c2ccccc2c2c3c(cccc13)N=N2 [SP600125, 1,9-Pyrazoloanthrone]
minimal dose at which the proliferation rates were unaffected while the invasive capabilities of the cells were at least partially blocked [4]: 1 µM

CC(=O)Nc1cccc(-n2c(=O)n(C3CC3)c(=O)c3c(Nc4ccc(I)cc4F)n(C)c(=O)c(C)c32)c1 [Trametinib]
primary LMB tumor growth ([2]; doses below 1 mg/kg): no significant effect | minimal dose at which the proliferation rates were unaffected while the invasive capabilities of the cells were at least partially blocked [4]: 0.001 to 0.01 µM

CN1CCN(Cc2ccc(-c3cnc4[nH]cc(-c5ccc6[nH]ccc6c5)c4c3)cc2)CC1 [URMC-099, 3-(1H-indol-5-yl)-5-[4-[(4-methyl-1-piperazinyl)methyl]phenyl]-1H-pyrrolo[2,3-b]pyridine]
primary LMB tumor growth determined by final tumor weight [2]: do not affect primary LMB tumor growth | p38 activation [5]: decrease | JNK activation ([3]; anisomycin-induced human cell lines (BM1, MB436)): decrease | minimal dose at which the proliferation rates were unaffected while the invasive capabilities of the cells were at least partially blocked [4]: 0.01 to 0.05 µM | invasion of MB436 cells [6]: decreased invasion | invasion of BM1 cells [7]: decreased invasion
